Test system: 252836-082-R-J2-PDC tumor spheroids, viability
Assay: Anticancer human tumor 252836-082-R-J2-PDC patient-derived head and neck squamous cell carcinoma cell line growth inhibition [PI3K]
Settings: spheroids with HUVEC and MSC; for IC50: curve of first compound; for viability, T/C: stronger effect = lower value
Procedure, shortened: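 Complex 3D spheroids (cancer cells + endothelial HUVEC + mesenchymal stem cells); drug pairs of targeted agent x inavolisib/alpelisib/duvelisib/copanlisib; half-log series from ~Cmax, max 10 microM if Cmax unknown; endpoint viability.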
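Further: spheroids exposed to agents for seven days before readout.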
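Wherever viability, T/C is given: percent of vehicle DMSO control viability so 100% = untreated growth.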

`Cn1ncnc1[C@H]1c2n[nH]c(=O)c3cc(F)cc(c23)N[C@@H]1c1ccc(F)cc1` + COc1c(OCCCN2CCOCC2)ccc2c3n(c(=NC(=O)c4cnc(N)nc4)nc12)CCN3 gave an IC50 (second compound 0.00316 µM) of 0.0906 µM, an IC50 (second compound 0.01 µM) of 0.0441 µM and an IC50 (second compound 0.0316 µM) of 0.013 µM. For the same compound, the IC50 (second compound 0.1 µM) was under 0.000316 µM, the IC50 (second compound 0.316 µM) was under 0.000316 µM and the IC50 (second compound 1 µM) was under 0.000316 µM. For the same compound, the viability, T/C (second compound 0.00316 µM, first compound 0.000316 µM) was 84.3%, the viability, T/C (second compound 0.00316 µM, first compound 0.001 µM) was 88.2% and the viability, T/C (second compound 0.00316 µM, first compound 0.00316 µM) was 86.4%. The viability, T/C (second compound 0.00316 µM, first compound 0.01 µM) was 72.1%, the viability, T/C (second compound 0.00316 µM, first compound 0.0316 µM) was 59.7% and the viability, T/C (second compound 0.00316 µM, first compound 0.1 µM) was 48.6%. It also gave a viability, T/C (second compound 0.01 µM, first compound 0.000316 µM) of 80.1%, a viability, T/C (second compound 0.01 µM, first compound 0.001 µM) of 67.5% and a viability, T/C (second compound 0.01 µM, first compound 0.00316 µM) of 80.7%. It also gave a viability, T/C (second compound 0.01 µM, first compound 0.01 µM) of 72.8%, a viability, T/C (second compound 0.01 µM, first compound 0.0316 µM) of 55.6% and a viability, T/C (second compound 0.01 µM, first compound 0.1 µM) of 36.2%. For the same compound, the viability, T/C (second compound 0.0316 µM, first compound 0.000316 µM) was 49.3%, the viability, T/C (second compound 0.0316 µM, first compound 0.001 µM) was 60.8% and the viability, T/C (second compound 0.0316 µM, first compound 0.00316 µM) was 52%. It also gave a viability, T/C (second compound 0.0316 µM, first compound 0.01 µM) of 52.1%, a viability, T/C (second compound 0.0316 µM, first compound 0.0316 µM) of 44.2% and a viability, T/C (second compound 0.0316 µM, first compound 0.1 µM) of 24.4%. It also gave a viability, T/C (second compound 0.1 µM, first compound 0.000316 µM) of 33.4%, a viability, T/C (second compound 0.1 µM, first compound 0.001 µM) of 35.1% and a viability, T/C (second compound 0.1 µM, first compound 0.00316 µM) of 34.8%. It also gave a viability, T/C (second compound 0.1 µM, first compound 0.01 µM) of 30.9%, a viability, T/C (second compound 0.1 µM, first compound 0.0316 µM) of 19% and a viability, T/C (second compound 0.1 µM, first compound 0.1 µM) of 11.8%. It also gave a viability, T/C (second compound 0.316 µM, first compound 0.000316 µM) of 19.1%, a viability, T/C (second compound 0.316 µM, first compound 0.001 µM) of 16% and a viability, T/C (second compound 0.316 µM, first compound 0.00316 µM) of 13.6%. For the same compound, the viability, T/C (second compound 0.316 µM, first compound 0.01 µM) was 9.81%, the viability, T/C (second compound 0.316 µM, first compound 0.0316 µM) was 8.53% and the viability, T/C (second compound 0.316 µM, first compound 0.1 µM) was 6.35%. The viability, T/C (second compound 1 µM, first compound 0.000316 µM) was 4.84%, the viability, T/C (second compound 1 µM, first compound 0.001 µM) was 4.33% and the viability, T/C (second compound 1 µM, first compound 0.00316 µM) was 3.36%. For the same compound, the viability, T/C (second compound 1 µM, first compound 0.01 µM) was 2.93%, the viability, T/C (second compound 1 µM, first compound 0.0316 µM) was 1.98% and the viability, T/C (second compound 1 µM, first compound 0.1 µM) was 2.41%.
